Patent US20230009608A1, “GRK2 INHIBITORS AND USES THEREOF” (Cygnal Therapeutics, Inc., priority 2020, published 2023)
Where two headings read alike, the source gives them in different places.

Tests used:
GRK2 = molecular target: T1, GRK2 (Homo sapiens, UniProt P25098); experiment: ADPGlo GRK2 Inhibition Assay (Example 8); type: biochemical; conditions: read-out: A: Enzymatic GRK2: IC50 (nM) (Example 8)
T1 construct: purchased SignalChem A14-10G
T1 sequence (P25098 1-689): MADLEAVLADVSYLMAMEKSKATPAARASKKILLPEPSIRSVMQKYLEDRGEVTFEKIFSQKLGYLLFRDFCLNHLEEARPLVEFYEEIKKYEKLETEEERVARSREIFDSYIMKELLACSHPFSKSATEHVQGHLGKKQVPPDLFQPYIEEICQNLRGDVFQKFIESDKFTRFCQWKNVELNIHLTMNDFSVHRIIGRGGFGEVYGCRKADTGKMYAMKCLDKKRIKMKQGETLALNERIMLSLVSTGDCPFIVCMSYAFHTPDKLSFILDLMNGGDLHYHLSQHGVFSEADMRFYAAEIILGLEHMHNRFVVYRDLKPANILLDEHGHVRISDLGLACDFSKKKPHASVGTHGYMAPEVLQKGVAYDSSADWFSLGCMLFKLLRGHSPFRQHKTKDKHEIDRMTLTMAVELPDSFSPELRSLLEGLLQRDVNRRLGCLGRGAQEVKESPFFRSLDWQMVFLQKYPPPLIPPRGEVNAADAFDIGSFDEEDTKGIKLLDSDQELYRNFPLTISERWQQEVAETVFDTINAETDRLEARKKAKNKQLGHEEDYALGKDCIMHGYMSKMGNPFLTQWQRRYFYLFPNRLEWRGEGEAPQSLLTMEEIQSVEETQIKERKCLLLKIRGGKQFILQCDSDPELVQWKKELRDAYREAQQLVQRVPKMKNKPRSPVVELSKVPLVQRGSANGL
Outline: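 GRK2 (15 nM 2× enzyme solution) was preincubated 15 min with compound, then reacted 180 min at room temperature with 2× mix of 20 μM ATP plus GRKtide in HEPES pH 7.5, MgCl2, Tween-20, DTT. ADP was detected by ADP-Glo luminescence. Percent inhibition was normalised to enzyme and no-enzyme controls, with dose-response curves from threefold dilutions starting at 100 μM.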

[1] = system: PAXF1657 control empty vector cell line; experiment: 7-day proliferation assay, PAXF1657 control empty vector cell line (Example 9); type: cell-based; conditions: 168 h; Cell Line: PAXF1657 empty vector (EV) cell line; 7-day; read-out: C: 7-day proliferation assay: IC50 GeoMean
Outline: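 PAXF1657 isogenic lines (GRK2-overexpressing vs empty vector; CRISPR GRK2 knockout vs non-targeting control clones) seeded 500 cells/well in RPMI1640/10% FBS and treated next day with 10-point dilutions, 30 μM-0.0002 μM final, 0.3% DMSO. Media with compound refreshed after 3 days; viability read by CellTiter-Glo luminescence at day 7.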

[2] = Enzyme Assay A, ADPGlo (Example 8)

IC50 (GRK2; [2]) [nM] | IC50 (GRK2; ADPGlo GRK2 enzyme assay) [nM] | Structure (SMILES) | IC50 [1] [nM]
37 | – | Cn1c(CNc2cccc(C(=O)NC(CCO)c3cccc(F)c3)c2)nnc1-c1ccncn1 (stereo not shown) | > 10000
60.9 | – | COc1ccc2c(c1)OCC[C@H]2NC(=O)c1cccc(NCc2nnc(-c3ccncn3)n2C)c1 | 485
20 | – | Cn1c(CNc2cccc(C(=O)C[C@H]3CCCc4cccnc43)c2)nnc1-c1ccncn1 | 224
– | 19 | Cn1c(CNc2cccc(C(=O)NC3CC(=O)c4ccccc43)c2)nnc1-c1ccncn1 (stereo not shown) | 867
– | 18.2 | Cn1c(CNc2cccc(C(=O)NC3CCS(=O)(=O)c4ccccc43)c2)nnc1-c1ccncn1 (stereo not shown) | 2790
16 | – | Cn1c(CNc2cccc(C(=O)NCc3cccc(F)c3F)c2)nnc1-c1ccncn1 | > 10000
– | 14.3 | CCc1cnccc1CNC(=O)c1cccc(NCc2nnc(-c3ccncc3)n2CCO)c1 | > 30000
45 | – | C[C@H](NC(=O)c1cccc(NCc2nnc(-c3ccncn3)n2C)c1)c1ccncc1 | 771
– | 18.4 | Cn1c(CNc2cccc(C(=O)NCc3cccc4c3CCNC4)c2)nnc1-c1ccncn1 | > 30000
18 | – | CCn1nc(C)c(CNC(=O)c2cccc(NCc3nnc(-c4ccncc4)[nH]3)c2)n1 | 3110
– | 8.3 | CCCCCOc1ccc2c(c1)[C@@H](NC(=O)c1cccc(NCc3nnc(-c4ccncn4)n3C)c1)CO2 | 236
22 | – | COc1cccc(CNC(=O)c2cccc(NCc3nnc(-c4ccncn4)n3C)c2)c1 | > 30000
17 | – | Cn1c(CNc2cccc(C(=O)NCc3ccnc(OCC(F)(F)F)c3)c2)nnc1-c1ccncn1 [drawing 339] | 3760
– | 22.6 | COc1ccc(C(C)NC(=O)c2cccc(NCc3nnc(-c4ccncn4)n3C)c2)cn1 (stereo not shown) | 1710
12 | – | COc1cccc(C(C)NC(=O)c2cccc(NCc3nnc(-c4ccncn4)n3C)c2)c1 (stereo not shown) [drawing 381] | 377
– | 69 | CC(NC(=O)c1cccc(NCc2nnc(-c3ccncn3)n2C)c1)c1ncccc1F (stereo not shown) | 2660
19 | – | Cc1nnc(CNC(=O)c2cccc(NCc3nnc(-c4ccncc4)[nH]3)c2)n1C1CC1 | > 10000
– | 11.6 | COc1cccc([C@H](C)NC(=O)c2cccc(NCc3nnc(-c4ccncc4F)n3C)c2)c1 | > 30000
– | 3.76 | [2H]C([2H])(Nc1cccc(C(=O)N[C@@H]2COc3ccccc32)c1)c1nnc(-c2ccncn2)n1CCO | 96
– | 32.1 | Cn1c(CNc2cccc(C(=O)NCc3ccccc3NS(C)(=O)=O)c2)nnc1-c1ccncn1 | > 30000
– | 5.77 | O=C(NCc1cnc2ccccn12)c1cccc(NCc2nnc(-c3ccncc3)n2CCO)c1 | > 30000

IC50 (GRK2; [2]) [nM] | IC50 (GRK2; ADPGlo GRK2 enzyme assay) [nM] | Structure (SMILES) | IC50 [1] [nM]
– | 12.6 | COc1cccc(CNC(=O)c2cccc(NCc3nnc(-c4ccncn4)n3C)c2)c1C | > 12600
37 | – | CC1CC(NC(=O)c2cccc(NCc3nnc(-c4ccncc4)[nH]3)c2)c2ncnn21 (stereo not shown) | > 10000
– | 11.2 | Cc1ccc(C)c(CNC(=O)c2cccc(NCc3nnc(-c4ccncn4)n3C)c2)n1 | > 30000
9.28 | – | O=C(N[C@@H]1COCc2ccccc21)c1cccc(NCc2nnc(-c3ccncc3)n2CCO)c1 | > 30000
15 | – | CC(NC(=O)c1cccc(NCc2nnc(-c3ccncn3)n2C)c1)c1ccncc1F (stereo not shown) | 103
– | 4.91 | COc1cccc([C@@H](C)NC(=O)c2cccc(NCc3nnc(-c4ccncn4)n3CCO)c2)c1 | 1230
27 | – | CC(NC(=O)c1cccc(NCc2nnc(-c3ccncn3)n2C)c1)c1ccn(C)n1 (stereo not shown) | 2150
41 | – | Cn1cc(C(NC(=O)c2cccc(NCc3nnc(-c4ccncn4)n3C)c2)c2ccccc2)cn1 (stereo not shown) | 66.4
– | 5.78 | CN(C)S(=O)(=O)c1cccc(F)c1CNC(=O)c1cccc(NCc2nnc(-c3ccncn3)n2C)c1 | 263
– | 43.4 | Cn1c(CNc2cccc(C(=O)N[C@H](CO)c3cc(F)ccc3F)c2)nnc1-c1ccncn1 | > 30000
220 | – | Cn1c(CNc2cccc(C(=O)NCc3nccc(Cl)c3F)c2)nnc1-c1ccncn1 | < 39
25.8 | – | Cn1c(CNc2cccc(C(=O)N[C@@H]3COc4cc(F)ccc43)c2)nnc1-c1ccncn1 | 117
30 | – | Cn1c(CNc2cccc(C(=O)NCc3cccc(C#N)c3F)c2)nnc1-c1ccncn1 | > 10000
9.99 | – | Cc1ccc2c(c1)OCC[C@H]2NC(=O)c1cccc(NCc2nnc(-c3ccncn3)n2C)c1 | 648
9.1 | – | Cn1c(CNc2cccc(C(=O)NCc3ccncc3Cl)c2)nnc1-c1ccncn1 [drawing 276] | 4060
834 | – | Cn1c(CNc2cccc(C(=O)N[C@H]3CCOc4ccc(C(F)(F)F)cc43)c2)nnc1-c1ccncn1 | 28500
27.9 | – | O=C(N[C@H]1COc2cc(F)ccc21)c1cccc(NCc2nnc(-c3ccncc3)[nH]2)c1 | 4070
8.09 | – | Cn1c(CNc2cccc(C(=O)N[C@@H]3CCOc4ccc(C(F)(F)F)cc43)c2)nnc1-c1ccncn1 | 594
9.54 | – | Cn1c(CNc2cccc(C(=O)N[C@H](CCO)c3ccccc3)c2)nnc1-c1ccncn1 | 4190
16 | – | Cc1ncccc1CNC(=O)c1cccc(NCc2nnc(-c3ccncn3)n2C)c1 | 1490
– | 28.1 | COc1ncc(Br)cc1CNC(=O)c1ccnc(NCc2nnc(-c3ccncn3)n2C)c1 | > 30000

IC50 (GRK2; [2]) [nM] | IC50 (GRK2; ADPGlo GRK2 enzyme assay) [nM] | Structure (SMILES) | IC50 [1] [nM]
33.9 | – | CNS(=O)(=O)c1cccc(F)c1CNC(=O)c1cccc(NCc2nnc(-c3ccncc3F)n2C)c1 | 2700
61 | – | Cn1c(CNc2cccc(C(=O)NCc3cccc4cccnc34)c2)nnc1-c1ccncn1 [drawing 359] | 3640
– | 53.5 | Cn1c(CNc2cccc(C(=O)NCc3ccncc3-c3cc[nH]n3)c2)nnc1-c1ccncn1 | > 23300
50 | – | Cc1ccncc1C(C)NC(=O)c1cccc(NCc2nnc(-c3ccncn3)n2C)c1 (stereo not shown) | 537
46 | – | COCC(NC(=O)c1cccc(NCc2nnc(-c3ccncn3)n2C)c1)c1ccc(F)c(F)c1 (stereo not shown) | 280
– | 6.03 | COc1ccccc1C(C#N)NC(=O)c1cccc(NCc2nnc(-c3ccncn3)n2C)c1 (stereo not shown) | 468
– | 14.9 | Cc1cc(C)c(CNC(=O)c2cccc(NCc3nnc(-c4ccncn4)n3C)c2)c(=O)[nH]1 | > 30000
350 | – | CC(C)c1ocnc1CNC(=O)c1cccc(NCc2nnc(-c3ccncn3)n2C)c1 | > 10000
– | 55.7 | Cn1c(CNc2cccc(C(=O)NCc3ccccc3Cn3cncn3)c2)nnc1-c1ccncn1 | 7410
– | 27.6 | Cn1c(CNc2cccc(C(=O)NCc3cccnc3Cl)c2)nnc1-c1ccncn1 | 506
– | 48.9 | Cn1c(CNc2cccc(C(=O)NCc3ccccc3OCCO)c2)nnc1-c1ccncn1 | > 6450
– | 65.4 | Cn1c(CNc2cccc(C(=O)NC3CCS(=O)(=O)c4ccc(F)cc43)c2)nnc1-c1ccncn1 (stereo not shown) | 8680
– | 21 | CN1CC[C@@H](NC(=O)c2cccc(NCc3nnc(-c4ccncn4)n3C)c2)c2ccccc21 | > 30000
– | 15.5 | Cc1ncncc1[C@@H](C)NC(=O)c1cccc(NCc2nnc(-c3ccncn3)n2C)c1 | > 30000
15 | – | Cc1cncc(CNC(=O)c2cccc(NCc3nnc(-c4ccncn4)n3C)c2)c1 | > 30000
– | 26.4 | Cn1c(CNc2cccc(C(=O)NC(CCO)c3ccccc3)c2)nnc1-c1ccncn1 (stereo not shown) | 1090
– | 12 | C#Cc1ccc(CNC(=O)c2cccc(NCc3nnc(-c4ccncn4)n3C)c2)c(F)c1 | 413
45 | – | Cn1c(CNc2cccc(C(=O)NCc3cc(Cl)ccn3)c2)nnc1-c1ccncn1 | > 30000
19 | – | Cc1noc(C)c1CNC(=O)c1cccc(NCc2nnc(-c3ccncn3)n2C)c1 | 173
– | 67.2 | CCC(NC(=O)c1cccc(NCc2nnc(-c3ccncn3)n2C)c1)c1ccccc1OCC(=O)NC (stereo not shown) | > 27800
